The nature of the test: Inhibition of recombinant full length human His-tagged PDK1 expressed in Baculovirus expression system in presence of ATP measured by […].

The text below walks through data of BindingDB's records for doi:10.1016/j.ejmech.2021.113895 (University of Pisa, 2021).

As to `Cc1c(Br)cc(C(=O)NCC(=O)Nc2ccc3c(c2)/C(=C/c2cnc[nH]2)C(=O)N3)c(=O)n1Cc1ccc(F)c(F)c1`, the IC50 came out at 134 nM.

As for `O=C(CCNC(=O)c1cccn(Cc2ccc(F)c(F)c2)c1=O)Nc1ccc2c(c1)/C(=C/c1cnc[nH]1)C(=O)N2` [US10351548, Compound DD21], the IC50 was 103 nM.

On to `O=C(CCNC(=O)c1cccn(Cc2ccc(F)c(F)c2)c1=O)Nc1ccc2c(c1)/C(=C/c1ncc[nH]1)C(=O)N2`, for which the IC50 is 455 nM.

In the case of `Cc1ccc(C(=O)N[C@@H](C(=O)Nc2ccc3c(c2)/C(=C/c2cnc[nH]2)C(=O)N3)c2ccccc2)c(=O)n1Cc1ccc(F)c(F)c1`, the IC50 turned out to be 148 nM.

For the compound `O=C(CCNC(=O)c1cccn(Cc2ccc(F)c(F)c2)c1=O)Nc1ccc2c(c1)C(=Cc1cccs1)C(=O)N2`, the half-maximal inhibitory concentration (IC50) stood at 1340 nM.

With `Cc1ccc(C(=O)NCC(=O)Nc2ccc3c(c2)/C(=C/c2cnc[nH]2)C(=O)N3)c(=O)n1Cc1ccc(F)c(F)c1`, the concentration for half-maximal inhibition (IC50) worked out at 103 nM.

As to `Cc1c(Br)cc(C(=O)N[C@@H](C(=O)Nc2ccc3c(c2)/C(=C/c2cnc[nH]2)C(=O)N3)c2ccccc2)c(=O)n1Cc1ccc(F)c(F)c1`, the concentration for half-maximal inhibition (IC50) was found to be 475 nM.

Turning to `O=C(CCCNC(=O)c1cccn(Cc2ccc(F)c(F)c2)c1=O)Nc1ccc2c(c1)C(=Cc1cccs1)C(=O)N2` [US10351548, Compound DF9], the IC50 stood at 5880 nM.

`O=C(CCCNC(=O)c1cccn(Cc2ccc(F)c(F)c2)c1=O)Nc1ccc2c(c1)/C(=C/c1cnc[nH]1)C(=O)N2` [US10351548, Compound DF8]: the IC50 is 245 nM.

In general, IC50 refers to the concentration needed to halve the response being measured.
